Source: patent US11795195B2, “Antibody-drug conjugates including hemiasterlin derivative” (Sumitomo Pharma Co., Ltd., priority 2017, dated 2023)

Legend:
[1] = Membrane Permeability Test, parallel artificial membrane permeability assay (PAMPA); assay type: in vitro ADME; conditions: pH 7.4, pH7.4, 37° C., read-out: Pe (pH7.4)
Experimental: By the parallel artificial membrane permeability assay (PAMPA), the membrane permeability of compounds of Examples was examined as follows: To the donor plate, System solution (pION inc.) and GIT Lipid-0 (pION inc.) were added in an amount of 200 μL and 4 μL for each well, respectively. To the acceptor plate, Acceptor Sink Buffer (pION inc.) was added in an amount of 200 μL. Both plates were superposed and incubated at 37° C. for 4 hours, and then, UVs in the solutions on the side of acceptor and on the side of donor were measured with an UV plate reader (190 to 500 nm). Compounds with poor UV absorption were measured by LC-MS. The permeability coefficient Pe (10^−6 cm/sec) of the drug was calculated by the following formula.
[formula] • ra=(VD/VA)Pa^(A-D)/Pa^(D-A)=rVPe^(A-D)/Pa^(D-A) • rV=(VD/VA) • VD=volume of doner well • VA=volume of acceptor well • t=permeation time • τ^SS=steady state time • R=retention • CD=CA=concentration in donor and acceptor well

SK-BR-3 cells = assay: Cellular Toxicity Test (2), CellTiter-Glo cell viability; assay type: cell-based, human; conditions: for IC50: Homo sapiens, 72 h, cultured 3 days, cell viability
Experimental: SK-BR-3 cells (ATCC), which are human breast cancer cell line, were cultured in McCoy's 5A (GIBCO) containing 10% fetal bovine serum (MP Biomedicals) (hereinafter, referred to as the “culture medium” in this test). SK-BR-3 cells were prepared to be 2×10^6 cells/mL in the culture medium, added to a 96 well microplate for cell culturing in an amount of 50 μL for each well, and cultured at 37 degree under 5% CO2 overnight, and then, compounds of Examples or Comparative Example compound 4 times diluted with the culture medium in 8 stages were added to the microplate in an amount of 50 μL for each well. These were cultured at 37 degree under 5% CO2 for 3 days. After culturing, the microplate was taken out from the incubator, and was left at rest at room temperature for 10 minutes. 50 μL of CellTiter-Glo Luminescent Cell Viability Assay (Promega) was added to each well, and the resultant mixture was stirred. This mixture was incubated at a dark place for 20 minutes. Using a microplate luminometer, luminescence at each well was measured, thereby calculating the cell viability. The IC50 value was calculated in accordance with the method described in Test Example 1.

Karpas-299 cells [2] = assay: Cellular Toxicity Test (1), CellTiter-Glo cell viability; assay type: cell-based, human; conditions: for IC50: Homo sapiens, 96 h, cultured 4 days, cell viability
Experimental: Karpas-299 cells (European Collection of Authenticated Cell Cultures, hereinafter, ECACC), which are human lymphoma cell lines, were cultured in RPMI 1640 (GIBCO) containing 10% fetal bovine serum (MP Biomedicals) (hereinafter, referred to as the “culture medium”). Cells were prepared to be 2×10^6 cells/mL in the culture medium, and were added to a 96 well microplate for cell culturing in an amount of 50 μL for each well. Compounds of Examples or Comparative Example compound 4 times diluted with the culture medium in 8 stages were added to the microplate in an amount of 50 μL for each well. These were cultured at 37 degree under 5% CO2 for 4 days. After culturing, the microplate was taken out from the incubator, and was left at rest at room temperature for 10 minutes. To each well, 50 μL of CellTiter-Glo Luminescent Cell Viability Assay (Promega) was added, and the resultant mixture was stirred. This mixture was incubated at a dark place for 20 minutes. Using a microplate luminometer, luminescence at each well was measured, thereby calculating the cell viability. In addition, from the value of cell viability, the IC50 value was calculated.
The IC50 value was calculated by the following formula: IC50 (nM)=antilog(LOG10(a/b)×(e−d)/(c−d)+LOG10b) a: concentration a of test substance b: concentration b of test substance c: cell viability upon adding test substance with concentration a d: cell viability upon adding test substance with concentration b e: intermediate value between maximum and minimum among cell viabilities upon adding test substances with different concentrations (a and b are concentrations crossing the cell viability e, and a>b is indicated).
The cell viability at each concentration was calculated by the following formula: Cell Viability (%)=a′/b′×100 a′: mean value of luminescence amount of wells to which test substance was added (n=6) b′: mean value of luminescence amount of wells to which test substance was not added (n=6) (n represents the number of evaluations performed per test substance concentration).

Karpas-299 cells [3] = assay: Cellular Toxicity Test (1) for ADCs; assay type: cell-based, human; conditions: Karpas-299 (CD30 antigen-positive, HER2 antigen-negative cell line), 4 days
Experimental: Karpas-299 cells (ECACC), which are CD30 antigen-positive and HER2 antigen-negative, were cultured in RPMI 1640 (GIBCO) containing 10% fetal bovine serum (MP Biomedicals) (hereinafter, referred to as “culture medium A” in this test). In addition, SK-BR-3 cells (ATCC), which are CD30 antigen-negative and HER2 antigen-positive, were cultured in McCoy's 5A (GIBCO) containing 10% fetal bovine serum (MP Biomedicals) (hereinafter, referred to as “culture medium B” in this test). Karpas-299 cells and SK-BR-3 cells were prepared to be 2×10^6 cells/mL in culture medium A or culture medium B, and were added to a 96 well microplate for cell culturing in an amount of 50 μL for each well. After the addition, SK-BR-3 cells were cultured at 37 degree under 5% CO2 overnight. ADCs 4 times diluted with culture medium A or culture medium B in 8 stages were added to the microplate in an amount of 50 μL for each well, and Karpas-299 cells and SK-BR-3 cells were cultured at 37 degree under 5% CO2 for 4 days or 3 days, respectively. After culturing, the microplate was taken out from the incubator, and was left at rest at room temperature for 10 minutes. […] Using a microplate luminometer, luminescence was measured, thereby calculating the cell viability for each concentration of the ADC. The IC50 value was calculated in accordance with the method described in Test Example 1.

Karpas-299 cells [4] = assay: Cellular Toxicity Test (2) for ADCs, cell survival relative to brentuximab; assay type: cell-based, human; conditions: Karpas-299, 2000 ng/mL solution added, 4 days, relative to cells surviving brentuximab treatment
Experimental: Karpas-299 cells were prepared to be 2×10^6 cells/mL in culture medium A, and were added to a 96 well microplate for cell culturing in an amount of 50 μL for each well. Brentuximab or Example ADCs, the concentration of which was prepared to be 2000 ng/mL with culture medium A, was added to the microplate in an amount of 50 μL for each well, and cultured at 37 degree under 5% CO2 for 4 days. After culturing, the microplate was taken out from the incubator, and was left at rest at room temperature for 10 minutes. To each well, 50 μL of CellTiter-Glo Luminescent Cell Viability Assay (Promega) was added, and the resultant mixture was stirred. This mixture was incubated at a dark place for 20 minutes, and luminescence was measured using a microplate luminometer, thereby determining the percentage of the number of cells that survived upon the treatment with Example ADCs relative to the number of cells that survived upon the treatment with brentuximab.

HL-60 = assay: Cellular Toxicity Test (3) for ADCs; assay type: cell-based; conditions: HL-60, treatment with 333 nM of ADC
Experimental: In accordance with the method described in Test Example 3 or Test Example 7, cellular toxicities of Example ADCs were measured using the cell types shown in the following table. As an indicator for the cellular toxicity, IC50 or the cell survival rate upon the treatment with 333 nM of ADC was measured. However, for ADC 51, the cell survival rate upon the treatment with 26.6 nM of ADC51 was measured.

With `CN[C@H](C(=O)N[C@H](C(=O)N(C)[C@H](/C=C(\C)C(=O)NCCCCNC(=O)CCCCCN1C(=O)C=CC1=O)C(C)C)C(C)(C)C)C(C)(C)c1cn(C)c2ccccc12` [Comparative Example compound, reference compound] the Papp at 4 h [1] was 16.9 ×10⁻⁶ cm/s, the “cellular toxicity to SK-BR-3 cells (in words)” value (SK-BR-3 cells) was “strong cellular toxicity” and the IC50 (SK-BR-3 cells) was 162 nM. For the same molecule, the “cellular toxicity to Karpas-299 cells (in words)” value (Karpas-299 cells [2]) was “strong cellular toxicity” and the IC50 (Karpas-299 cells [2]) was 19.1 nM.

In the case of `CN[C@H](C(=O)N[C@H](C(=O)N(C)[C@H](/C=C(\C)C(=O)N[C@H](CCC(=O)NCCN1C(=O)C=CC1=O)C(=O)O)C(C)C)C(C)(C)C)C(C)(C)c1cn(C)c2ccccc12` [Example M1, (3S,6S,9S,10E,14R)-6-tert-Butyl-14-(3-{[2-(2,5-dioxo-2,5-dihydro-1H-pyrrol-1-yl)ethyl]amino}-3-oxopropyl)-8,11-dimethyl-3-[2-(1-methyl-1H-indol-3-yl)propan-2-yl]-4,7,12-trioxo-9-(propan-2-yl)-2,5,8,13-tetraazapentadec-10-en-15-oic Acid], the Papp at 4 h [1] is reported as < 0.1 ×10⁻⁶ cm/s, the IC50 (SK-BR-3 cells) is reported as > 1000 nM and the IC50 (Karpas-299 cells [2]) is reported as 726 nM.

For `CN[C@H](C(=O)N[C@H](C(=O)N(C)[C@H](/C=C(\C)C(=O)N[C@@H](CCC(=O)NCCN1C(=O)C=CC1=O)C(=O)O)C(C)C)C(C)(C)C)C(C)(C)c1ccccc1` [Example M11], the Papp at 4 h [1] was < 0.1 ×10⁻⁶ cm/s and the IC50 (Karpas-299 cells [2]) was > 1000 nM.

In the case of `C/C(=C\[C@H](C(C)C)N(C)C(=O)[C@@H](NC(=O)[C@H]1CCCCN1C(C)C)C(C)(C)C)C(=O)N[C@H](CCC(=O)NCCN1C(=O)C=CC1=O)C(=O)O` [Example M43], the Papp at 4 h [1] is reported as 2 ×10⁻⁶ cm/s and the IC50 (Karpas-299 cells [2]) is reported as 3.8 nM.

For “Comparative Example 1: Brentuximab, a CD30 antigen-specific antibody, no modifying agent, average DAR 0”, the IC50 (Karpas-299 cells [3]) was > 6.6 nM and the “Cell survival rate (%)” value (Karpas-299 cells [4]) was 100%.

With `CN[C@H](C(=O)N[C@H](C(=O)N(C)[C@H](/C=C(\C)C(=O)N[C@H](CC(=O)NCCN1C(=O)C=CC1=O)C(=O)O)C(C)C)C(C)(C)C)C(C)(C)c1cn(C)c2ccccc12` [Example M20] the Papp at 4 h [1] was < 0.1 ×10⁻⁶ cm/s and the IC50 (Karpas-299 cells [2]) was 406 nM.

For `CN[C@H](C(=O)N[C@H](C(=O)N(C)[C@H](/C=C(\C)C(=O)N[C@H](CCC(=O)NCCN1C(=O)C=CC1=O)C(=O)O)C(C)C)C(C)(C)C)C(C)(C)c1cccc(-c2ccccc2)c1` [Example M41], the Papp at 4 h [1] was 0.8 ×10⁻⁶ cm/s and the IC50 (Karpas-299 cells [2]) was 26.3 nM.

In the case of `CN[C@H](C(=O)N[C@H](C(=O)N(C)[C@H](/C=C(\C)C(=O)N[C@@H](CCC(=O)O)C(=O)NCCN1C(=O)C=CC1=O)C(C)C)C(C)(C)C)C(C)(C)c1cn(C)c2ccccc12` [Example M22], the Papp at 4 h [1] is reported as < 0.1 ×10⁻⁶ cm/s and the IC50 (Karpas-299 cells [2]) is reported as 154 nM.

In the case of `CN[C@H](C(=O)N[C@H](C(=O)N(C)[C@H](/C=C(\C)C(=O)N[C@H](CC(=O)NCCN1C(=O)C=CC1=O)C(=O)O)C(C)C)C(C)(C)C)C(C)(C)c1ccccc1` [Example M9], the Papp at 4 h [1] is reported as < 0.1 ×10⁻⁶ cm/s and the IC50 (Karpas-299 cells [2]) is reported as 576 nM.

Molecule `CNC(C(=O)N[C@H](C(=O)N(C)[C@H](/C=C(\C)C(=O)N[C@H](CCC(=O)NCCN1C(=O)C=CC1=O)C(=O)O)C(C)C)C(C)(C)C)C(C)(C)c1ccc(O)cc1` (stereo partly shown) [Example M34] has a Papp at 4 h [1] of 2.7 ×10⁻⁶ cm/s and an IC50 (Karpas-299 cells [2]) of 8 nM.

With `CN[C@H](C(=O)N[C@H](C(=O)N(C)[C@H](/C=C(\C)C(=O)N[C@H](CC(=O)O)C(=O)NCCN1C(=O)C=CC1=O)C(C)C)C(C)(C)C)C(C)(C)c1cn(C)c2ccccc12` [Example M24] the Papp at 4 h [1] was < 0.1 ×10⁻⁶ cm/s and the IC50 (Karpas-299 cells [2]) was 166 nM.

For `CN[C@H](C(=O)N[C@H](C(=O)N(C)[C@H](/C=C(\C)C(=O)N[C@H](CCC(=O)N[C@@H](CCCCNC(=O)CCCCCN1C(=O)C=CC1=O)C(=O)O)C(=O)O)C(C)C)C(C)(C)C)C(C)(C)c1cn(C)c2ccccc12` [Example M2, N-{(2E,4S)-2,5-Dimethyl-4-[methyl(N,β,β,1-tetramethyl-L-tryptophyl-3-methyl-L-valyl)amino]hex-2-enoyl}-D-γ-glutamyl-N^6-[6-(2,5-dioxo-2,5-dihydro-1H-pyrrol-1-yl)hexanoyl]-L-lysine], the Papp at 4 h [1] was < 0.1 ×10⁻⁶ cm/s and the IC50 (Karpas-299 cells [2]) was 780 nM.

For `CN[C@H](C(=O)N[C@H](C(=O)N(C)[C@H](/C=C(\C)C(=O)N[C@H](CCC(=O)NCCN1C(=O)C=CC1=O)C(=O)O)C(C)C)C(C)(C)C)C(C)(C)c1cccc(C#N)c1` [Example M35], the Papp at 4 h [1] was 0.8 ×10⁻⁶ cm/s and the IC50 (Karpas-299 cells [2]) was 8.6 nM.

B1: ADC54: ADC of Vadastuximab and M4, average DAR 5.3 (conjugate, chains of the INN, looked up)
VH: QVQLVQSGAEVKKPGASVKVSCKASGYTFTNYDINWVRQAPGQGLEWIGWIYPGDGSTKYNEKFKAKATLTADTSTSTAYMELRSLRSDDTAVYYCASGYEDAMDYWGQGTTVTVSS
VL: DIQMTQSPSSLSASVGDRVTINCKASQDINSYLSWFQQKPGKAPKTLIYRANRLVDGVPSRFSGSGSGQDYTLTISSLQPEDFATYYCLQYDEFPLTFGGGTKVEIK
modifications: drug-linker M4, DAR 5.3
With B1 the “Cell survival rate (%)” value (HL-60) was 68%.
